# Literature values as cited in patent US11273137B2, “Methods and compositions to prevent and treat disorders associated with mutations in the ODC1 gene” (Board of Trustees of Michigan State University, priority 2018, dated 2022).
# Tests used:
# [1] = system: transgenic mice overexpressing c-terminally deleted ODC (p.P427X)
# [2] = transgenic mice with c-terminally deleted ODC
smiles,measurement,setting,value
"NCCC[C@](N)(C(=O)O)C(F)F [DFMO, alpha-difluoromethylornithine]",water solubility,,water soluble
same,"phenotypic changes (skin and hair follicle abnormalities, alopecia)",[1]; heterozygous transgenic mice with c-terminal 34 aa ODC deletion targeted to the skin,reversible
same,hair growth,[1]; mice with complete hair loss,partially restored hair growth
same,hair loss,[1]; [2],prevented hair loss
same,reappearance of normal follicles,[1]; [2],activated reappearance of normal follicles
